These results are taken from US20260297070A1, “CYCLIC [COMPOUND LEFT OUT] WRN INHIBITORS” (Nimbus Wadjet, Inc., priority 2023, published 2026).

Molecules are shown by their SMILES.

In the assay the target is T1, human Werner helicase (WRN-BV08, Uniprot Q14191, amino acids 517-1235 with L1074F point mutation) (Homo sapiens, UniProt Q14191, L1074F).
T1 construct: Uniprot Q14191, amino acids 517-1235 with L1074F point mutation; TEV-cleavable 8×His (C, cleaved yes); made in house; host or cells: Sf9 insect cells (baculovirus)
T1 sequence (Q14191 with tags, fused parts or gaps L1074F limits assumed): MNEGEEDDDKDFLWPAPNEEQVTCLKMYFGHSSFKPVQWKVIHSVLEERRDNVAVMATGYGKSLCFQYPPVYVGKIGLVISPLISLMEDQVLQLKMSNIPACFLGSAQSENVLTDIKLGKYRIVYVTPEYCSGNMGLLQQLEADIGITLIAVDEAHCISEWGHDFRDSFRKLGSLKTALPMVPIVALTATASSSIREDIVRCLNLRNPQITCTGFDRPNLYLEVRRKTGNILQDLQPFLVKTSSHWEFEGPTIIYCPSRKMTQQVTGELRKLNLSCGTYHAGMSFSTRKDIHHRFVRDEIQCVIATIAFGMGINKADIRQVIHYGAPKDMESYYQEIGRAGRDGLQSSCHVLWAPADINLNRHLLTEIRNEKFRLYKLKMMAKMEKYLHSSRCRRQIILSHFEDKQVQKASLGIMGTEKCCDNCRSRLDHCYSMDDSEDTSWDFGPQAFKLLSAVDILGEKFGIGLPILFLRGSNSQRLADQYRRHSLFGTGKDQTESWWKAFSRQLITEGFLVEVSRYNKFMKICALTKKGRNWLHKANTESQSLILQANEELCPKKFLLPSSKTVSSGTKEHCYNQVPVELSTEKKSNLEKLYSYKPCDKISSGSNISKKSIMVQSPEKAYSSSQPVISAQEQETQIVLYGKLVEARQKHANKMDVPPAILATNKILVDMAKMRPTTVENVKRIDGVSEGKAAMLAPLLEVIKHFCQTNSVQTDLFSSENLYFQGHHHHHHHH
The assay can be described thus: WRN (BV08) ADP-Glo Assay. Conditions: 0.15 nM WRN, 5 μM ATP, 0.1 nM DNA duplex, 15 min preincubation, 60 min at 25° C., pH 7.5, 1% DMSO; read-out: ADP-Glo_hWRN_IC50. In kind it is biochemical. In a few lines:
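WRN 0.15 nM + cpd, 15 min 25 °C; add 5 μM ATP / 0.1 nM annealed DNA duplex; 60 min 25 °C; ADP-Glo stop, RLU. Buffer 20 mM Bicine pH 7.5, 1 mM MgCl2, 10 mM KCl, 1 mM TCEP. IC50, 4-parameter fit.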
For the compound `COC(C(=O)N(Cc1ccnc(C(C)(C)O)c1)C1C=CS(=O)(=O)C1)c1ccc(-c2ccc(F)c(F)c2)cc1F` (single isomer, unassigned) [I-578, (2R*)-N-[(3R**)-1,1-dioxo-2,3-dihydro-1lambda6-thiophen-3-yl]-N-{[2-(2-hydroxypropan-2-yl)pyridin-4-yl]methyl}-2-methoxy-2-{3,3′,4′-trifluoro-[1,1′-biphenyl]-4-yl}acetamide], the IC50 lay in the range of 10 to 50 µM. With `O=C(Cc1ccc(-c2nnco2)cc1)N(Cc1ccncc1)C1C=CS(=O)(=O)C1` (stereo not shown) [I-558, N-(1,1-dioxo-2,3-dihydro-1lambda6-thiophen-3-yl)-2-[4-(1,3,4-oxadiazol-2-yl)phenyl]-N-[(pyridin-4-yl)methyl]acetamide], the IC50 is more than 50 µM. In the case of `O=C(Cc1ccc2c[nH]nc2c1)N(Cc1ccncc1)C1C=CS(=O)(=O)C1` (stereo not shown) [I-414, N-(1,1-dioxo-2,3-dihydro-1lambda6-thiophen-3-yl)-2-(2H-indazol-6-yl)-N-[(pyridin-4-yl)methyl]acetamide], the IC50 is more than 50 µM. Regarding `CC(C)(O)c1cc(CN(C(=O)C(F)(F)c2ccc(-c3ccc(F)c(F)c3)cc2F)[C@@H]2C=CS(=O)(=O)C2)ccn1` [I-38, (R)—N-(1,1-dioxido-2,3-dihydrothiophen-3-yl)-2,2-difluoro-N-((2-(2-hydroxypropan-2-yl)pyridin-4-yl)methyl)-2-(3,3′,4′-trifluoro-[1,1′-biphenyl]-4-yl)acetamide], the IC50 was less than 0.5 µM. To `O=C1Nc2ccccc2C1CCC(=O)N(Cc1ccncc1)C1C=CS(=O)(=O)C1` (stereo not shown) [I-585, N-(1,1-dioxo-2,3-dihydro-1lambda6-thiophen-3-yl)-3-(2-oxo-2,3-dihydro-1H-indol-3-yl)-N-[(pyridin-4-yl)methyl]propanamide] belongs more than 50 µM; to `O=C(Cc1ccc(S(F)(F)(F)(F)F)cc1)N(Cc1nnc(C2CC2)s1)C1C=CS(=O)(=O)C1` (stereo not shown) [I-645, N-[(5-cyclopropyl-1,3,4-thiadiazol-2-yl)methyl]-N-(1,1-dioxo-2,3-dihydro-1lambda6-thiophen-3-yl)-2-[4-(pentafluoro-lambda6-sulfanyl)phenyl]acetamide], 0.5 to 5 µM; to `Cc1cccn1-c1ccc(CC(=O)N(Cc2ccnc3c2CCO3)C2C=CS(=O)(=O)C2)c(F)c1` (stereo not shown) [I-179, N-(1,1-dioxo-2,3-dihydro-1lambda6-thiophen-3-yl)-2-[2-fluoro-4-(2-methyl-1H-pyrrol-1-yl)phenyl]-N-({2H,3H-furo[2,3-b]pyridin-4-yl}methyl)acetamide], 0.5 to 5 µM.

With `COc1cc(CN(C(=O)Cc2ccc(-n3ccccc3=O)cc2F)C2C=CS(=O)(=O)C2)ccn1` (stereo not shown) [I-381, N-(1,1-dioxo-2,3-dihydro-1lambda6-thiophen-3-yl)-2-[2-fluoro-4-(2-oxo-1,2-dihydropyridin-1-yl)phenyl]-N-[(2-methoxypyridin-4-yl)methyl]acetamide], the IC50 was more than 50 µM.

`O=C(Cc1csc(C2CC2)n1)N(Cc1ccncc1)C1C=CS(=O)(=O)C1` (stereo not shown) [I-438, 2-(2-cyclopropyl-1,3-thiazol-4-yl)-N-(1,1-dioxo-2,3-dihydro-1lambda6-thiophen-3-yl)-N-[(pyridin-4-yl)methyl]acetamide]: the IC50 is more than 50 µM.

With `COc1cc(CN(C(=O)C(OC)c2ccc(-c3ccc(F)c(F)c3)cc2F)C2C=CS(=O)(=O)C2)ccn1` (stereo not shown) [I-45, N-(1,1-dioxo-2,3-dihydro-1lambda6-thiophen-3-yl)-2-methoxy-N-[(2-methoxypyridin-4-yl)methyl]-2-{3,3′,4′-trifluoro-[1,1′-biphenyl]-4-yl}acetamide], the IC50 is less than 0.5 µM. Under `O=C(C(C1CC1)n1cc(-c2ccccc2)cn1)N(Cc1ccncc1)C1C=CS(=O)(=O)C1` (stereo not shown) [I-435, 2-cyclopropyl-N-(1,1-dioxo-2,3-dihydro-1lambda6-thiophen-3-yl)-2-(4-phenyl-1H-pyrazol-1-yl)-N-[(pyridin-4-yl)methyl]acetamide] stands more than 50 µM. To `O=C(Cc1ccc(-n2cccc2)cc1)N(c1c[nH]c2ncc(F)cc12)C1C=CS(=O)(=O)C1` (stereo not shown) [I-479, N-(1,1-dioxo-2,3-dihydro-1lambda6-thiophen-3-yl)-N-{5-fluoro-1H-pyrrolo[2,3-b]pyridin-3-yl}-2-[4-(1H-pyrrol-1-yl)phenyl]acetamide] belongs more than 50 µM; to `O=C1CC(c2ccc(F)cc2)CCN1CC(=O)N(Cc1ccncc1)C1C=CS(=O)(=O)C1` (stereo not shown) [I-457, N-(1,1-dioxo-2,3-dihydro-1lambda6-thiophen-3-yl)-2-[4-(4-fluorophenyl)-2-oxopiperidin-1-yl]-N-[(pyridin-4-yl)methyl]acetamide], more than 50 µM. To `O=C(Cc1ccc(-n2cccc2)cc1)N(Cc1nccs1)C1C=CS(=O)(=O)C1` (stereo not shown) [I-276, N-(1,1-dioxo-2,3-dihydro-1lambda6-thiophen-3-yl)-2-[4-(1H-pyrrol-1-yl)phenyl]-N-[(1,3-thiazol-2-yl)methyl]acetamide] belongs 5 to 10 µM. Turning to `COc1cc(CN(C(=O)C(OCCC#N)c2ccc(-c3ccc(F)c(F)c3)cc2F)[C@@H]2C=CS(=O)(=O)C2)ccn1` (stereo partly drawn) [I-744, 2-(2-cyanoethoxy)-N-[(3R)-1,1-dioxo-2,3-dihydro-1lambda6-thiophen-3-yl]-N-[(2-methoxypyridin-4-yl)methyl]-2-{3,3′,4′-trifluoro-[1,1′-biphenyl]-4-yl}acetamide], the IC50 lay within 0.5 to 5 µM. To `COc1cc(CN(C(=O)Cc2ccc(-n3ccc(F)cc3=O)cc2F)C2C=CS(=O)(=O)C2)ccn1` (stereo not shown) [I-453, N-(1,1-dioxo-2,3-dihydro-1lambda6-thiophen-3-yl)-2-[2-fluoro-4-(4-fluoro-2-oxo-1,2-dihydropyridin-1-yl)phenyl]-N-[(2-methoxypyridin-4-yl)methyl]acetamide] belongs more than 50 µM. To `O=C(Cc1ccc(-n2cccc2)cc1)N(Cc1nc2ccccc2s1)C1C=CS(=O)(=O)C1` (stereo not shown) [I-149, N-[(1,3-benzothiazol-2-yl)methyl]-N-(1,1-dioxo-2,3-dihydro-1lambda6-thiophen-3-yl)-2-[4-(1H-pyrrol-1-yl)phenyl]acetamide] belongs 0.5 to 5 µM; to `O=C(Cc1ccc(C2CC2)cc1)N(Cc1ccncc1)C1C=CS(=O)(=O)C1` (stereo not shown) [I-287, 2-(4-cyclopropylphenyl)-N-(1,1-dioxo-2,3-dihydro-1lambda6-thiophen-3-yl)-N-[(pyridin-4-yl)methyl]acetamide], 5 to 10 µM; to `O=C(Cc1ccc(-n2cccc2CCO)cc1)N(Cc1ccccc1)C1C=CS(=O)(=O)C1` (stereo not shown) [I-383, N-benzyl-N-(1,1-dioxo-2,3-dihydro-1lambda6-thiophen-3-yl)-2-{4-[2-(2-hydroxyethyl)-1H-pyrrol-1-yl]phenyl}acetamide], more than 50 µM. To `Cc1cc(CN(C(=O)Cc2ccc(-n3cccc3)cc2)C2C=CS(=O)(=O)C2)ccn1` (stereo not shown) [I-207, N-(1,1-dioxo-2,3-dihydro-1lambda6-thiophen-3-yl)-N-[(2-methylpyridin-4-yl)methyl]-2-[4-(1H-pyrrol-1-yl)phenyl]acetamide] belongs 0.5 to 5 µM.

On to `O=C(Cc1ccc2c(c1)CCCC2)N(Cc1ccncc1)C1C=CS(=O)(=O)C1` (stereo not shown) [I-643, N-(1,1-dioxo-2,3-dihydro-1lambda6-thiophen-3-yl)-N-[(pyridin-4-yl)methyl]-2-(5,6,7,8-tetrahydronaphthalen-2-yl)acetamide], for which the IC50 lay within 10 to 50 µM. Take `COc1cc(CN(C(=O)Cc2ccc(-c3ccc(F)c(F)c3)cc2F)C2C=CS(=O)(=O)C2)ccn1` (stereo not shown) [I-64, N-(1,1-dioxo-2,3-dihydro-1lambda6-thiophen-3-yl)-N-[(2-methoxypyridin-4-yl)methyl]-2-{3,3′,4′-trifluoro-[1,1′-biphenyl]-4-yl}acetamide]: the IC50 is less than 0.5 µM. To `CN(C)C(=O)c1ccc(CN(C(=O)Cc2ccc(-n3cccc3)cc2)C2C=CS(=O)(=O)C2)cc1` (stereo not shown) [I-259, 4-{[N-(1,1-dioxo-2,3-dihydro-1lambda6-thiophen-3-yl)-2-[4-(1H-pyrrol-1-yl)phenyl]acetamido]methyl}-N,N-dimethylbenzamide] belongs 5 to 10 µM; to `CC(=O)NCC(C(=O)N(Cc1ccncc1)C1C=CS(=O)(=O)C1)c1ccc(-c2ccc(F)cc2)cc1` (stereo not shown) [I-563, N-(1,1-dioxo-2,3-dihydro-1lambda6-thiophen-3-yl)-3-acetamido-2-{4′-fluoro-[1,1′-biphenyl]-4-yl}-N-[(pyridin-4-yl)methyl]propanamide], more than 50 µM. To `O=C(Cc1ccc(-n2cccc2)cc1)N(Cc1nc(-c2cccnc2)cs1)C1C=CS(=O)(=O)C1` (stereo not shown) [I-146, N-(1,1-dioxo-2,3-dihydro-1lambda6-thiophen-3-yl)-N-{[4-(pyridin-3-yl)-1,3-thiazol-2-yl]methyl}-2-[4-(1H-pyrrol-1-yl)phenyl]acetamide] belongs 0.5 to 5 µM; to `O=C(Cc1ccc(-n2cccc2)cc1)N(Cc1ccnc(-c2ccccc2)c1)C1C=CS(=O)(=O)C1` (stereo not shown) [I-297, N-(1,1-dioxo-2,3-dihydro-1lambda6-thiophen-3-yl)-N-[(2-phenylpyridin-4-yl)methyl]-2-[4-(1H-pyrrol-1-yl)phenyl]acetamide], 0.5 to 5 µM.

For `COc1cc(CN(C(=O)Cn2cnc(-c3ccc(F)cc3)c2)[C@@H]2C=CS(=O)(=O)C2)ccn1` [I-597, N-[(3R)-1,1-dioxo-2,3-dihydro-1lambda6-thiophen-3-yl]-2-[4-(4-fluorophenyl)-1H-imidazol-1-yl]-N-[(2-methoxypyridin-4-yl)methyl]acetamide], the IC50 was more than 50 µM. As for `O=C(Cc1ccc(-n2cccc2)cc1)N(Cc1ccc2ncccc2c1)C1C=CS(=O)(=O)C1` (stereo not shown) [I-222, N-(1,1-dioxo-2,3-dihydro-1lambda6-thiophen-3-yl)-2-[4-(1H-pyrrol-1-yl)phenyl]-N-[(quinolin-6-yl)methyl]acetamide], the IC50 lay in the range of 5 to 10 µM.
